According to US4164571A, “Medicament which antagonizes the action of gastrin and related polypeptides” (Commissariat a l'Energie Atomique, priority 1976, dated 1979):
Read-outs that look alike come from different tables or passages of the source.

Assays:
mice = conditions: for number of death cases: group of ten mice
Source text: All the dead or surviving animals are autopsied, the stomach and the small intestine are examined for heamorrhages or ulcers.

[1] = system: stimulated secretion of gastric juice; test: stimulated gastric acid secretion in anaesthetised perfused rats (Ghosh and Schild, modified by Lai), intravenous injection; format: in vivo, rat; conditions: for % inhibition of pentagastrin stimulated acid secretion / % inhibition of gastrin I stimulated acid secretion: i.v.
Procedure: A first series of experiments was carried out on male Wistar rats weighing 300 to 325 g. The procedure used was that of Ghosh and Schild, modified by Lai. The rats fasted for the 18 hours preceding the test. On the day of the test the rats were anaesthesized with urethane by the intraperitoneal route at a rate of 1.20 g of urethane per kilogramme. The rectal temperature was maintained at 34°±1° C. by means of an anal probe connected to a thermometer which electronically controlled the lighting up of a 100 Watt lamp positioned above each rat. An oesophageal probe (polyethylene catheter) was introduced up to the oesophagus--rumen junction of the rat and another catheter was introduced into the pyloric opening via the duodenum. The stomach was perfused with a solution of physiological serum introduced by means of the oesophageal tube at a constant speed of 1 ml/mn and was collected every ten minutes by the pyloroduodenal probe.
The rats prepared in this way were left to rest for a period of at least 45 minutes. The perfusate sampled every 10 minutes was then determined by means of a 0.01 N soda solution at pH 8.45, corresponding to a phenolphthalein colour change or at pH 7.4 with an automatic titration apparatus at constant pH.
After determining the basal acid secretion of the gastric juice on at least four consecutive samples a dose of gastrin was intravenously administered to the rats in the vein of the penis and subsequently the response to this stimulation was recorded until the secretion returned to the basal level over a period of at least twice 10 minutes. […] The results are expressed in microequivalents of hydrochloric acid per 40 minutes and are calculated as follows: either as the number of secreted microequivalents after stimulation less the number of microequivalents secreted in the 40 minutes prior to the injection of the dose, or as an acid peak, i.e., taking the average of the two consecutive maximum responses for each dose less the average value for the two basal values preceding the injection.
The transformation into double inverse makes it possible by analogy with enzymatic reactions to conclude whether the inhibition is of the competitive type or not.

[2] = system: stimulated secretion of gastric juice; test: gastric acid secretion in rats under continuous intravenous perfusion; format: in vivo, rat
Procedure: In a second series of experiments an intravenous perfusion of an isotonic solution of […] sodium chloride was administered at a rate of 2.4 ml/h to rats prepared in the manner indicated hereinbefore according to the procedure of Ghosh and Schild, modified by Lai. This perfusion was administered to the vein of the penis.
The rats prepared in this manner were left at rest for at least 45 minutes, then the acidity was determined as hereinbefore on the gastric perfusate sampled every 10 minutes. […] At the end of the first hour a dose of gastrin I was added to the perfusion. The results obtained are given in FIG. 5a showing the variations of the gastric secretion as a function of time.

CSCC[C@H](NC(=O)[C@H](Cc1c[nH]c2ccccc12)NC(=O)CCNC(=O)OC(C)(C)C)C(=O)N[C@@H](CC(=O)O)C(=O)N[C@@H](Cc1ccccc1)C(N)=O [pentagastrin, Boc-Gly-Trp-Met-Asp-phe-NH2, reference compound]
number of death cases (mice; 1280 μg/kg i.p., 2 h): 1 | number of death cases (mice; 1280 μg/kg i.p., 6 h): 1 | number of death cases (mice; 2560 μg/kg i.p., 2 h): 2 | number of death cases (mice; 2560 μg/kg i.p., 48 h): 1 | dose at which digestive hemorrhages are observed (mice; i.p., importance increases with the dose): ≥ 0.32 mg/kg | LD 50 (mice; i.p., logit-log paper): higher than 3.2 mg/kg

Boc-Gly-Trp-(NPS)-Met-Aspe-Phe-NH2 [pentagastrin-NPS]
number of death cases (mice; 1280 μg/kg i.p., 24 h): 1 | petechiae at autopsy (mice; 2560 μg/kg i.p.): a few petechiae are observed | number of death cases (mice; 2560 μg/kg i.p., 6 h): 1 | number of death cases (mice; 2560 μg/kg i.p., 24 h): 1 | number of death cases (mice; 2560 μg/kg i.p., 48 h): 2 | digestive hemorrhage at autopsy (mice; 160 to 2560 μg/kg i.p.): does not lead to any digestive hemorrhage | doses leading to no modifications (petechiae) of the stomach and of the intestine (mice; i.p.): under 2,5 mg/kg | inhibition of pentagastrin action ([1]; pentagastrin-NPS associated with pentagastrin): inhibits the pentagastrin action | % inhibition of pentagastrin stimulated acid secretion ([1]; ratio pentagastrin-NPS/pentagastrin 1/1, 50 ng pentagastrin-NPS with 50 ng pentagastrin): 100% | % inhibition of pentagastrin stimulated acid secretion ([1]; ratio pentagastrin-NPS/pentagastrin 1/2, 50 ng pentagastrin-NPS with 100 ng pentagastrin): 100% | % inhibition of pentagastrin stimulated acid secretion ([1]; ratio pentagastrin-NPS/pentagastrin 1/3, 50 ng pentagastrin-NPS with 150 ng pentagastrin): 75% | % inhibition of pentagastrin stimulated acid secretion ([1]; ratio pentagastrin-NPS/pentagastrin 1/4, 50 ng pentagastrin-NPS with 200 ng pentagastrin): < 20%

orthonitrophenyl sulphenylated gastrin I [gastrin I-NPS]
time until stimulated secretion plateau after introduction of gastrin I ([2]; 100 ng/h gastrin I-NPS with 200 ng/h gastrin I, plateau at a lower level): 30 min | time until stimulated secretion plateau after introduction of gastrin I ([2]; 100 ng/h gastrin I-NPS with 400 ng/h gastrin I, plateau reaches the level of 100 ng/h gastrin I): 40 min | secretory response to the substance alone ([2]; 100 ng/h in intravenous perfusion): causes no secretory response | type of inhibition of gastrin I response (double inverse representation) ([1]; 100 or 200 ng gastrin I-NPS with each dose of gastrin I): inhibition is competitive | % inhibition of gastrin I stimulated acid secretion ([1]; ratio gastrin I-NPS/gastrin I 1/1, 50 ng gastrin NPS with 50 ng gastrin I): 100% | % inhibition of gastrin I stimulated acid secretion ([1]; ratio gastrin I-NPS/gastrin I 1/2, 50 ng gastrin NPS with 100 ng gastrin I): 75% | % inhibition of gastrin I stimulated acid secretion ([1]; ratio gastrin I-NPS/gastrin I 1/3, 50 ng gastrin NPS with 150 ng gastrin I): 65% | % inhibition of gastrin I stimulated acid secretion ([1]; ratio gastrin I-NPS/gastrin I 1/4, 50 ng gastrin NPS with 200 ng gastrin I): < 35%
